The values that follow come from ChEMBL document CHEMBL6074685, “Design, synthesis and biological evaluation of novel diaryl-substituted fused nitrogen heterocycles as tubulin polymerization inhibitors to overcome multidrug resistance in vitro and in vivo” (Eur J Med Chem, 2025).

In general, pIC50 refers to −log10 of the IC50, conventionally taken in molar units. A word on the half-life: it is the time in which the quantity being followed falls by half. Usually solubility stands for the dissolved amount per volume that the medium holds. Higher therefore signals much dissolved substance.

Data set [1] deals with A549/TR. The experiment in a line: Antiproliferative activity against human A549/T cell assessed as cell growth inhibition incubated for 48 hrs by MTT assay. Type of data set: functional, cell-based. In general terms: Tetrazolium dyes change colour on reduction, which living cells bring about.
Data set [2] concerns A549. The experiment in a line: Antiproliferative activity against human A549 cells assessed as cell growth inhibition incubated for 48 hrs by MTT assay. Conditions: A549, 48 h.
Data set [3] is described as follows: Resistance index, ratio of IC50 for human A549/T cells to IC50 for human A549 cells. Type of data set: functional.
Another data set has as its target Tubulin (Homo sapiens) (UniProt P68371+Q9H4B7+P0DPH7+P68366+Q13509+Q71U36+P04350+Q3ZCM7+P07437+P68363+Q9BQE3+Q6PEY2+Q13885+Q9BVA1+Q9BUF5). The experiment in a line: Disruption of microtubule network in human A549/T cell assessed as disorganization of tubulin cytoskeleton at 1000 nM incubated for 24 hrs by immunofluorescence staining based confocal microscopy analysis.

In data set [4] the test system is A549. Kind of data set: Inhibition of colony formation in human A549 cells at 1 uM incubated for 48 hrs by crystal violet staining based analysis. Type of data set: functional, cell-based.
The subject of data set [5] is A549/TR. Kind of data set: Inhibition of colony formation in human A549/T cell at 1 uM incubated for 48 hrs by crystal violet staining based analysis. Type of data set: functional.
The test system of data set [6] is A549/TR. The experiment in a line: Antiproliferative activity against human A549/T cell assessed as cell growth inhibition in presence of verapamil incubated for 48 hrs by MTT assay. Type of data set: functional, cell-based.
Data set [7] has as its system A549/TR. The experiment in a line: Antitumor activity against human A549/T cell xenografted in BALB/c mouse assessed as reduction in tumor growth at 15 mg/kg, ip administered every 2 days. The following applies: time 2.0 day. Type of data set: functional, organism-based. (In general: In xenograft studies the graft and the host belong to different species.)
The nature of data set [8]: Toxicity in BALB/c mouse implanted with human A549/T cell assessed as change in body weight at 15 mg/kg, ip administered every 2 days. Type of data set: organism-based. Conditions: in vivo, 48 h, time 2 day.
The nature of data set [9]: Inhibition of pig brain tubulin polymerization measured upto 20 mins by absorbance based assay. Further details: species or system Sus scrofa.
Data set [10] in a line: Metabolic stability in human liver microsome assessed as half life measured upto 50 mins by LC-MS/MS analysis. Type of data set: ADME. The following applies: liver microsomes. (Liver microsomes are vesicles of endoplasmic reticulum, rich in cytochrome P450 enzymes.)
Data set [11] in a line: Metabolic stability in human liver microsome assessed as intrinsic clearance measured upto 50 mins by LC-MS/MS analysis. Type of data set: ADME. Conditions: liver microsomes, read-out: CLH.
Data set [12] is described as follows: Aqueous solubility of the compound […] at pH 7.4 by HPLC analysis. Type of data set: physicochemical.
For data set [13], the system named is A549/TR. Kind of data set: Antiproliferative activity against human A549/T cell assessed as cell growth inhibition at 80 nM incubated for 48 hrs by MTT assay. Type of data set: functional, cell-based.

Molecules are shown by their SMILES. pIC50: −log10 of the molar value. In brackets after ≈: the same amount, converted by molar mass. Activity calls are given as the source filed them. The rule behind the calls is not given here.

For `CC(=O)O[C@H]1C(=O)[C@@]2(C)[C@H]([C@H](OC(=O)c3ccccc3)[C@]3(O)C[C@H](OC(=O)[C@H](O)[C@@H](NC(=O)c4ccccc4)c4ccccc4)C(C)=C1C3(C)C)[C@]1(OC(C)=O)CO[C@@H]1C[C@@H]2O` [PACLITAXEL], the figures for the pIC50 with A549/TR [1] and with A549 [2] were less than 4.30 and 8.70, respectively. In addition, the “Ratio IC50” value in [3] is more than 25000. In addition, the result at Tubulin (Homo sapiens) and in the data set on A549/TR [6] was Active. Besides, the inhibition entry with A549 [4] was “Active”. In addition, the inhibition entry in the data set on A549/TR [5] is “inactive”. In addition, the result with A549/TR [7] was inactive. Besides, the Activity result in data set [8] was “Non-toxic”.

`COc1ccc(/C=C\c2cc(OC)c(OC)c(OC)c2)cc1O` [COMBRETASTATIN A4]: the pIC50 in the data set with A549/TR [1] was 7.89; in data set [9], 5.85. In addition, in [10], the half-life was determined as 14 min. Besides, the CLint scaled in [11] came to 90 mL/min/kg. The solubility in [12] worked out at 1 µg/mL (≈ 3.16 µM). In the data set with A549/TR [7], the result was Active. In addition, the Activity entry in data set [8] is recorded as “Non-toxic”.

Consider `COc1ccc(CCN(C)CCCC(C#N)(c2ccc(OC)c(OC)c2)C(C)C)cc1OC` (stereo not drawn), for which the outcome in the data set on A549/TR [1] was inactive. Besides, the outcome in the data set on A549/TR [13] was Active.
